In patent publication US12583866B2, “Pyrido[2,3-b][1,4]oxazines or tetrahydropyrido[2,3-b][1,4]oxazepines as IAP antagonists” (BEIGENE, LTD., priority 2020, dated 2026):

How the values were obtained:
[1] = target: T1, recombinant human XIAP-BIR3 protein (Homo sapiens, UniProt P98170); assay: Recombinant human XIAP-BIR3 biochemical assay (HTRF, peptide displacement); settings: 3.7 nM XIAP-BIR3, 7.6 nM AbuRPF-K(5-Fam)-NH2 peptide, read-out: Protein binding IC50 (nM) XIAP
T1 construct: recombinant human XIAP-BIR3 protein; purchased Reaction biology APT-11-374
Protocol: III. Recombinant Human XIAP-BIR3 Biochemical Assay
(§1) Compounds disclosed herein were tested for blocking of recombinant human XIAP-BIR3 protein (Cat: APT-11-374, Reaction biology) with its peptide in an assay based on Homogeneous Time Resolved Fluorescence. 3.7 nM recombinant human XIAP-BIR3 protein was pre-incubated with a serial dilution of compounds disclosed herein (maximum concentration is 10 uM, 4-fold serially diluted, 10 points) at room temperature for 1 hour in an assay buffer containing 20 mM HEPES, pH 7.5, 50 mM NaCl, 0.005% Tween-20, 1 mM DTT. Then 7.6 nM AbuRPF-K(5-Fam)-NH2 (Cat: 709702, GL Biochem) was added to plate incubated at room temperature for 1 hour. Mab Anti-6His Tb cryptate Gold (Cat: 61HI2TLB, Cisbio Bioassays) was added to plate and further incubated at room temperature for 1 hour. The HTRF signals (ex337 nm, em520 nm/490 nm) were read on BMG PHERAstar FS instrument. The inhibition percentage of XIAP-BIR3 interaction with its peptide in presence of increasing concentrations of compounds was calculated based on the ratio of fluorescence at 520 nm to that at 490 nm. The IC50 for each compound was derived from fitting the data to the four-parameter logistic equation by Dotmatics and summarized in table 1.

[2] = target: T2, recombinant human cIAP2-BIR3 protein (Homo sapiens, UniProt Q13489); assay: Recombinant human c-IAP2-BIR3 biochemical assay (HTRF, peptide displacement); settings: 3.7 nM cIAP2-BIR3, 3.7 nM AbuRPF-K(5-Fam)-NH2 peptide, read-out: Protein binding IC50 (nM) c-IAP2
T2 construct: recombinant human cIAP2-BIR3 protein; purchased Reaction biology APT-11-372
Protocol: II. Recombinant Human c-IAP2-BIR3 Biochemical Assay
as §1, with “cIAP2-BIR3” for “XIAP-BIR3”, “APT-11-372,” for “APT-11-374,”, “3.7” for “7.6”

[3] = target: T3, recombinant human cIAP1-BIR3 protein (Homo sapiens, UniProt Q13490); assay: Recombinant human c-IAP1-BIR3 biochemical assay (HTRF, peptide displacement); settings: 1.2 nM cIAP1-BIR3, 3 nM AbuRPF-K(5-Fam)-NH2 peptide, read-out: Protein binding IC50 (nM) c-IAP1
T3 construct: recombinant human cIAP1-BIR3 protein; purchased Reaction biology APT-11-370
Protocol: I. Recombinant human c-IAP1-BIR3 biochemical assay
as §1, with “cIAP1-BIR3” for “XIAP-BIR3”, “APT-11-370,” for “APT-11-374,”, “1.2” for “3.7”, “3” for “7.6”, “AbuRPF-K (5-Fam)-NH2” for “AbuRPF-K(5-Fam)-NH2”

T2 sequence (Q13489 238-349 limits assumed): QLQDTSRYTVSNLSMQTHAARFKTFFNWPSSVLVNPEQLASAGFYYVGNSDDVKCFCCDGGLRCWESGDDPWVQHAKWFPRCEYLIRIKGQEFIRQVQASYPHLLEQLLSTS
T1 sequence (P98170 241-356 limits assumed): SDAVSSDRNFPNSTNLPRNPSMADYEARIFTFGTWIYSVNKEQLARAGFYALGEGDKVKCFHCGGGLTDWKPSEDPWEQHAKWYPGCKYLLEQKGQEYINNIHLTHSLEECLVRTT
T3 sequence (Q13490 253-363 limits assumed): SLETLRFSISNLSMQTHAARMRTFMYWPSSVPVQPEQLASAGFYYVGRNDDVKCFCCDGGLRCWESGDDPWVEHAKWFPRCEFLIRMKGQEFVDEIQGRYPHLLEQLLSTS

SMILES | IC50 [1] | IC50 [2] | IC50 [3]
C[C@@H]1CN(CC(=O)N2c3cc(Cc4ccc(F)cc4)c(CO)nc3OC[C@@H]2C)[C@@H](CN2[C@H](C)COC[C@H]2C)CN1 [Compound 24] | 4.49 nM | 0.24 nM | 0.15 nM
C[C@@H]1CN(CC(=O)N2c3cc(Cc4ccc(F)cc4)c(CO)nc3OC[C@@H]2C)[C@@H](CN2CCOCC23CC3)CN1 [Compound 50, 2-((2R,5R)-2-((7-oxa-4-azaspiro[2.5]octan-4-yl)methyl)-5-methylpiperazin-1-yl)-1-((S)-7-(4-fluorobenzyl)-6-(hydroxymethyl)-2-methyl-2,3-dihydro-1H-pyrido[2,3-b][1,4]oxazin-1-yl)ethan-1-one] | 14 nM | 0.93 nM | 0.44 nM
CC(=O)Nc1nc2c(cc1Cc1ccc(F)cc1)N(C(=O)CN1C[C@@H](C)NC[C@@H]1CN1[C@H](C)COC[C@H]1C)[C@@H](C)CO2 [Compound 116] | 4.3 nM | 0.24 nM | 0.16 nM
C[C@@H]1CN(CC(=O)N2c3cc(Cc4ccc(F)cc4)c(C(=O)N4CCOCC4)nc3OC[C@@H]2C)[C@@H](CN2[C@H](C)COC[C@H]2C)CN1 [Example 72, 2-((2R,5R)-2-(((3R,5R)-3,5-dimethylmorpholino)methyl)-5-methylpiperazin-1-yl)-1-((S)-7-(4-fluorobenzyl)-2-methyl-6-(morpholine-4-carbonyl)-2,3-dihydro-1H-pyrido[2,3-b][1,4]oxazin-1-yl)ethan-1-one] | 7.6 nM | 0.42 nM | 0.35 nM
CCOc1nc2c(cc1Cc1ccc(F)cc1)N(C(=O)CN1C[C@@H](C)NC[C@@H]1CN1CCOC[C@H]1C)CCO2 [Compound 17, 1-(6-ethoxy-7-(4-fluorobenzyl)-2,3-dihydro-1H-pyrido[2,3-b][1,4]oxazin-1-yl)-2-((2R,5R)-5-methyl-2-(((R)-3-methylmorpholino)methyl)piperazin-1-yl)ethan-1-one] | 5.4 nM | 1.3 nM | 0.53 nM
C[C@@H]1CN(CC(=O)N2c3cc(Cc4ccc(F)cc4)cnc3OC[C@@H]2COCc2ccccc2)[C@@H](CN2[C@H](C)COC[C@H]2C)CN1 [Compound 23, 1-((S)-2-((benzyloxy)methyl)-7-(4-fluorobenzyl)-2,3-dihydro-1H-pyrido[2,3-b][1,4]oxazin-1-yl)-2-((2R,5R)-2-(((3R,5R)-3,5-dimethylmorpholino)methyl)-5-methylpiperazin-1-yl)ethan-1-one] | 6.9 nM | 0.18 nM | 0.13 nM
C[C@@H]1CN(CC(=O)N2c3cc(Cc4ccc(F)cc4)c(C(=O)NCC(F)(F)F)nc3OC[C@@H]2C)[C@@H](CN2[C@H](C)COC[C@H]2C)CN1 [Example 64] | 2.3 nM | 0.29 nM | 0.25 nM
CC(C)NC(=O)c1nc2c(cc1Cc1ccc(F)cc1)N(C(=O)CN1C[C@@H](C)NC[C@@H]1CN1[C@H](C)COC[C@H]1C)[C@@H](C)CO2 [Example 69, (S)-1-(2-((2R,5R)-2-(((3R,5R)-3,5-dimethylmorpholino)methyl)-5-methylpiperazin-1-yl)acetyl)-7-(4-fluorobenzyl)-N-isopropyl-2-methyl-2,3-dihydro-1H-pyrido[2,3-b][1,4]oxazine-6-carboxamide] | 3.7 nM | 0.37 nM | 0.16 nM
C[C@@H]1CN(CC(=O)N2c3cc(Cc4ccc(F)cc4)c(NCCO)nc3OC[C@@H]2C)[C@@H](CN2[C@H](C)COC[C@H]2C)CN1 [Compound 109] | 10.3 nM | 0.45 nM | 0.24 nM
C[C@@H]1CN(CC(=O)N2c3cc(Cc4ccc(F)cc4)c(CO)nc3OC[C@@H]2C)[C@@H](CN2[C@H](C)CN(C)C[C@H]2C)CN1 [Compound 105, 1-((S)-7-(4-fluorobenzyl)-6-(hydroxymethyl)-2-methyl-2,3-dihydro-1H-pyrido[2,3-b][1,4]oxazin-1-yl)-2-((2R,5R)-5-methyl-2-(((2R,6R)-2,4,6-trimethylpiperazin-1-yl)methyl)piperazin-1-yl)ethan-1-one] | 11.3 nM | 0.35 nM | 0.28 nM
CC(C)OC[C@H]1COc2ncc(Cc3ccc(F)cc3)cc2N1C(=O)CN1C[C@@H](C)NC[C@@H]1CN1[C@H](C)COC[C@H]1C [Compound 39, 2-((2R,5R)-2-(((3R,5R)-3,5-dimethylmorpholino)methyl)-5-methylpiperazin-1-yl)-1-((S)-7-(4-fluorobenzyl)-2-(isopropoxymethyl)-2,3-dihydro-1H-pyrido[2,3-b][1,4]oxazin-1-yl)ethan-1-one] | 28 nM | 0.27 nM | 0.15 nM
C[C@@H]1CN(CC(=O)N2c3cc(Cc4ccc(F)cc4)c(C(N)=O)nc3OC[C@@H]2C)[C@@H](CN2CCOC[C@H]2C(F)F)CN1 [Example 82] | 10 nM | 0.73 nM | 0.54 nM
C[C@@H]1CN(CC(=O)N2c3cc(Cc4ccc(F)cc4)cnc3OC[C@@H]2Cc2ccccc2)[C@@H](CN2CCOC[C@H]2C)CN1 [Compound 29, 1-((S)-2-benzyl-7-(4-fluorobenzyl)-2,3-dihydro-1H-pyrido[2,3-b][1,4]oxazin-1-yl)-2-((2R,5R)-5-methyl-2-(((R)-3-methylmorpholino)methyl)piperazin-1-yl)ethan-1-one] | 22 nM | 0.32 nM | 0.24 nM
C[C@@H]1CN(CC(=O)N2c3cc(Cc4ccc(F)cc4)c(NS(=O)(=O)C4CC4)nc3OC[C@@H]2C)[C@@H](CN2[C@H](C)COC[C@H]2C)CN1 [Compound 123, N—((S)-1-(2-((2R,5R)-2-(((3R,5R)-3,5-dimethylmorpholino)methyl)-5-methylpiperazin-1-yl)acetyl)-7-(4-fluorobenzyl)-2-methyl-2,3-dihydro-1H-pyrido[2,3-b][1,4]oxazin-6-yl)cyclopropanesulfonamide] | 4.4 nM | 0.35 nM | 0.2 nM
C[C@@H]1CN(CC(=O)N2CCOc3nc(CO)c(Cc4ccc(F)cc4)cc32)[C@@H](CN2CCOC[C@H]2C)CN1 [Compound 8, 1-(7-(4-fluorobenzyl)-6-(hydroxymethyl)-2,3-dihydro-1H-pyrido[2,3-b][1,4]oxazin-1-yl)-2-((2R,5R)-5-methyl-2-(((R)-3-methylmorpholino)methyl)piperazin-1-yl)ethan-1-one] | 45 nM | 2.9 nM | 1 nM
C[C@@H]1CN(CC(=O)N2c3cc(Cc4ccc(F)cc4)c(OCCO)nc3OC[C@@H]2C)[C@@H](CN2[C@H](C)COC[C@H]2C)CN1 [Compound 107] | 4.4 nM | 0.41 nM | 0.23 nM
